System: Tumors from APC-/- mice
Assay: 13C isotopic tracing in APC-/- tumors ex vivo (LC-MS/MS)
Type: cell-based, mouse
Settings: 10 min ex vivo

| SMILES | F1P 13C-labeled at all six positions (M+6), percentage of labeling | percentage of fully labeled lactate |
| --- | --- | --- |
| O=[13C]([13CH2]O)[13C@@H](O)[13C@H](O)[13C@H](O)[13CH2]O [^13C-fructose, D-[U-^13C6]-Fructose] | 47.1% | – |
| O=[13CH][13C@H](O)[13C@@H](O)[13C@H](O)[13C@H](O)[13CH2]O [^13C-glucose, D-[U-^13C6]-Glucose] | – | 30.2% |

Source: US12628858B2, “Therapy for colorectal and small intestine cancers” (Cornell University, priority 2019, dated 2026)
